Source: the supplement of paper PMC11208160

Assay: recombinant barcode read abundance after kanamycin selection (control-corrected) (log10(CPM+1)); higher = more efficient recombination; sequences stand for … in AGTGCAGAGAAAATCGGCCAGTTTTCTCTGCCTGCAGTCCGCATGCCGT…AGATTTATGCAGCGGACTGCCTTTCTCCCAAAGTGATAAACCGGACAGTATCATGGACCGGTTTTCCCGGTAATCCGTATTTGCAAGGTTGGTTTCACT; site = the 11-nt target
How it was run: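 Duplicate cultures were plated either on chloramphenicol/ampicillin LB agar, serving as control, or on chloramphenicol/ampicillin/kanamycin with 0.1 mM IPTG. These came from a pooled E. coli library co-electroporated with a donor plasmid, each member pairing a target with an IS621 bridge RNA target-binding loop. Recombination efficiency equals averaged, control-corrected counts per million of recombinant-junction barcodes. It is listed as log10(CPM+1).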
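Also: IS621 recombinase and bridge RNA in Escherichia coli cells.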

Sequence	recombinant barcode read abundance (log10)
GACTTGGCTTGGGTTCTAACCTGTTGCCT (site GACTTGCCTAG)	0.146
GACTTGGCTTGGGTTCTAACCTGTTGCCT (site GACTTGGCTAG)	0.146
GACTTGGCTTGGGTTCTAACCTGTTGCCT (site GACTTGTCTAG)	0.124
GAGAAATCTTGGGTTCTAACCTGTTGCCT (site GAGAAATCTAG)	0.59
GAGAAATCTTGGGTTCTAACCTGTTGCCT (site GAGACATCTAG)	0.249
GAGAAATCTTGGGTTCTAACCTGTTGCCT (site GAGAGATCTAG)	0.0526
GAGAAATCTTGGGTTCTAACCTGTTGCCT (site GAGATATCTAG)	0.0612
GAGAAGTCTTGGGTTCTAACCTGTTGCCT (site GAGAAGTCTAG)	1.93
GAGAAGTCTTGGGTTCTAACCTGTTGCCT (site GAGCAGTCTAG)	0.133
GAGAAGTCTTGGGTTCTAACCTGTTGCCT (site GAGGAGTCTAG)	0.115
GAGAAGTCTTGGGTTCTAACCTGTTGCCT (site GAGTAGTCTAG)	0.404
GAGACAGCTTGGGTTCTAACCTGTTGCCT (site GAAACAGCTAG)	0.367
GAGACAGCTTGGGTTCTAACCTGTTGCCT (site GACACAGCTAG)	0.0512
GAGACAGCTTGGGTTCTAACCTGTTGCCT (site GAGACAGCTAG)	1.54
GAGACAGCTTGGGTTCTAACCTGTTGCCT (site GATACAGCTAG)	0.504
GAGACGGCTTGGGTTCTAACCTGTTGCTT (site GAGACGGCTAA)	1.22
GAGACGGCTTGGGTTCTAACCTGTTGCTT (site GAGCCGGCTAA)	0.193
GAGACGGCTTGGGTTCTAACCTGTTGCTT (site GAGGCGGCTAA)	0.424
GAGACGGCTTGGGTTCTAACCTGTTGCTT (site GAGTCGGCTAA)	0.206
GAGACTCCTTGGGTTCTAACCTGTTGCAC (site GAGACTCCTCT)	0.437
GAGACTCCTTGGGTTCTAACCTGTTGCAC (site GAGACTCCTGT)	1.17
GAGACTCCTTGGGTTCTAACCTGTTGCAG (site GAGACTCCTCT)	0.956

Sequence	recombinant barcode read abundance (log10)
GAGACTCCTTGGGTTCTAACCTGTTGCAG (site GAGACTCCTGT)	0.509
GAGACTCCTTGGGTTCTAACCTGTTGCTA (site GAGACTCCTTA)	0.392
GAGACTCCTTGGGTTCTAACCTGTTGCTA (site GCGACTCCTTA)	0.0503
GAGACTGCTTGGGTTCTAACCTGTTGCCT (site GAAACTGCTAG)	0.291
GAGACTGCTTGGGTTCTAACCTGTTGCCT (site GACACTGCTAG)	0.068
GAGACTGCTTGGGTTCTAACCTGTTGCCT (site GAGACTGCTAG)	0.865
GAGACTGCTTGGGTTCTAACCTGTTGCCT (site GATACTGCTAG)	0.0802
GAGAGCACTTGGGTTCTAACCTGTTGCCA (site GAGAGCACTTG)	1.23
GAGAGCACTTGGGTTCTAACCTGTTGCCA (site GAGGGCACTTG)	0.329
GAGAGGACTTGGGTTCTAACCTGTTGCTT (site GAGAGGACTAA)	1.86
GAGAGGACTTGGGTTCTAACCTGTTGCTT (site GATAGAACTAA)	0.0753
GAGATATCTTGGGTTCTAACCTGTTGCCT (site GAGAAATCTAG)	0.223
GAGATATCTTGGGTTCTAACCTGTTGCCT (site GAGACATCTAG)	0.339
GAGATATCTTGGGTTCTAACCTGTTGCCT (site GAGAGATCTAG)	0.217
GAGATATCTTGGGTTCTAACCTGTTGCCT (site GAGATATCTAG)	2.07
GAGATCCCTTGGGTTCTAACCTGTTGCCA (site GAGATCCCTTG)	1.22
GAGATCCCTTGGGTTCTAACCTGTTGCCA (site GGGGTCCCTTG)	0.235
GAGATCCCTTGGGTTCTAACCTGTTGCTA (site GAGATCCCTCA)	0.427
GAGATCCCTTGGGTTCTAACCTGTTGCTA (site GAGATCCCTTA)	1.93
GAGATCCCTTGGGTTCTAACCTGTTGCTG (site GAGATCCCTCA)	2.37
GAGATCCCTTGGGTTCTAACCTGTTGCTG (site GAGATCCCTTA)	0.188
GAGATGACTTGGGTTCTAACCTGTTGCGG (site GAGACGACTCG)	0.0565

Sequence	recombinant barcode read abundance (log10)
GAGATGACTTGGGTTCTAACCTGTTGCGG (site GAGATGACTCC)	2.29
GAGCAACCTTGGGTTCTAACCTGTTGCCG (site GAGCAACCTCG)	1.07
GAGCAACCTTGGGTTCTAACCTGTTGCCG (site GAGCCACCTTG)	0.017
GAGCAGACTTGGGTTCTAACCTGTTGCCT (site GAGCAGACTAG)	0.931
GAGCAGACTTGGGTTCTAACCTGTTGCCT (site GAGCCGACTAG)	0.146
GAGCAGACTTGGGTTCTAACCTGTTGCCT (site GAGCGGACTAG)	0.235
GAGCAGACTTGGGTTCTAACCTGTTGCCT (site GAGCTGACTAG)	0.631
GAGCCACCTTGGGTTCTAACCTGTTGCCA (site GAGCAACCTCG)	0.0457
GAGCCACCTTGGGTTCTAACCTGTTGCCA (site GAGCCACCTTG)	1.02
GAGCGAGCTTGGGTTCTAACCTGTTGCCG (site GAGCGAGCTCA)	0.199
GAGCGAGCTTGGGTTCTAACCTGTTGCCG (site GAGCGAGCTCC)	0.582
GAGCGAGCTTGGGTTCTAACCTGTTGCCG (site GAGCGAGCTCG)	1.11
GAGCGAGCTTGGGTTCTAACCTGTTGCCG (site GAGCGAGCTCT)	0.308
GAGCGATCTTGGGTTCTAACCTGTTGCGT (site GAGCGATCTAC)	1.85
GAGCGATCTTGGGTTCTAACCTGTTGCGT (site GAGTGAGCTAC)	0.0311
GAGCGCTCTTGGGTTCTAACCTGTTGCCT (site GAGCGCTCTAG)	1.48
GAGCGCTCTTGGGTTCTAACCTGTTGCCT (site GAGTGCTCTAC)	0.0357
GAGCGCTCTTGGGTTCTAACCTGTTGCTG (site GAGCGCTCTAA)	0.0574
GAGCGCTCTTGGGTTCTAACCTGTTGCTG (site GAGCGCTCTCA)	1.05
GAGCGCTCTTGGGTTCTAACCTGTTGCTG (site GAGCGCTCTGA)	0.207
GAGCGCTCTTGGGTTCTAACCTGTTGCTG (site GAGCGCTCTTA)	0.0132
GAGCGGACTTGGGTTCTAACCTGTTGCTA (site GAGCGAGCTTA)	0.0384

Sequence	recombinant barcode read abundance (log10)
GAGCGGACTTGGGTTCTAACCTGTTGCTA (site GAGCGGACTTA)	1.83
GAGCGGCCTTGGGTTCTAACCTGTTGCAG (site ATTTAAGCTAG)	0.224
GAGCGGCCTTGGGTTCTAACCTGTTGCAG (site GAGCGGCCTCT)	1.72
GAGCTAGCTTGGGTTCTAACCTGTTGCGC (site GAGCTAGCTAC)	0.109
GAGCTAGCTTGGGTTCTAACCTGTTGCGC (site GAGCTAGCTGC)	2.29
GAGCTGCCTTGGGTTCTAACCTGTTGCCA (site AGCTAATCTAA)	0.274
GAGCTGCCTTGGGTTCTAACCTGTTGCCA (site GAGCTGCCTTG)	1.66
GAGCTTACTTGGGTTCTAACCTGTTGCCT (site GAGCTTACTAG)	0.618
GAGCTTACTTGGGTTCTAACCTGTTGCCT (site GCGCTTACTAG)	0.0105
GAGCTTACTTGGGTTCTAACCTGTTGCCT (site GGGCTTACTAG)	0.299
GAGCTTACTTGGGTTCTAACCTGTTGCCT (site GTGCTTACTAG)	0.158
GAGGAACCTTGGGTTCTAACCTGTTGCCT (site AAGGAACCTAG)	1.57
GAGGAACCTTGGGTTCTAACCTGTTGCCT (site CAGGAACCTAG)	1.28
GAGGAACCTTGGGTTCTAACCTGTTGCCT (site GAGGAACCTAG)	2.12
GAGGAACCTTGGGTTCTAACCTGTTGCCT (site TAGGAACCTAG)	1.44
GAGGAAGCTTGGGTTCTAACCTGTTGCCT (site GAGGAAGCTAG)	1.81
GAGGAAGCTTGGGTTCTAACCTGTTGCCT (site GCGGAAGCTAG)	0.545
GAGGAAGCTTGGGTTCTAACCTGTTGCCT (site GGGGAAGCTAG)	0.316
GAGGAAGCTTGGGTTCTAACCTGTTGCCT (site GTGGAAGCTAG)	0.473
GAGGACTCTTGGGTTCTAACCTGTTGCCC (site GAGGACTCTAG)	2
